O=C1CCCC(=O)O1
solubility (mole fraction) (in 1,2-dichloroethane, 278.15 K): 0.448 | solubility (mole fraction) (in 1,2-dichloroethane, 283.15 K): 0.555 | solubility (mole fraction) (in 1,2-dichloroethane, 288.15 K): 0.631 | solubility (mole fraction) (in 1,2-dichloroethane, 293.15 K): 0.7 | solubility (mole fraction) (in 1,2-dichloroethane, 298.15 K): 0.773 | solubility (mole fraction) (in 1,2-dichloroethane, 303.15 K): 0.807 | solubility (mole fraction) (in 1,2-dichloroethane, 308.15 K): 0.866 | solubility (mole fraction) (in 1,2-dichloroethane, 313.15 K): 0.922 | solubility (mole fraction) (in DMAc, 278.15 K): 0.73 | solubility (mole fraction) (in DMAc, 283.15 K): 0.789 | solubility (mole fraction) (in DMAc, 288.15 K): 0.83 | solubility (mole fraction) (in DMAc, 293.15 K): 0.852 | solubility (mole fraction) (in DMAc, 298.15 K): 0.877 | solubility (mole fraction) (in DMAc, 303.15 K): 0.905 | solubility (mole fraction) (in DMAc, 308.15 K): 0.923 | solubility (mole fraction) (in DMAc, 313.15 K): 0.935 | solubility (mole fraction) (in DMF, 278.15 K): 0.549 | solubility (mole fraction) (in DMF, 283.15 K): 0.594 | solubility (mole fraction) (in DMF, 288.15 K): 0.663 | solubility (mole fraction) (in DMF, 293.15 K): 0.705 | solubility (mole fraction) (in DMF, 298.15 K): 0.74 | solubility (mole fraction) (in DMF, 303.15 K): 0.795 | solubility (mole fraction) (in DMF, 308.15 K): 0.822 | solubility (mole fraction) (in DMF, 313.15 K): 0.87 | solubility (mole fraction) (in acetone, 278.15 K): 0.444 | solubility (mole fraction) (in acetone, 283.15 K): 0.524 | solubility (mole fraction) (in acetone, 288.15 K): 0.623 | solubility (mole fraction) (in acetone, 293.15 K): 0.676 | solubility (mole fraction) (in acetone, 298.15 K): 0.76 | solubility (mole fraction) (in acetone, 303.15 K): 0.815 | solubility (mole fraction) (in acetone, 308.15 K): 0.884 | solubility (mole fraction) (in acetone, 313.15 K): 0.918 | solubility (mole fraction) (in acetonitrile, 278.15 K): 0.591 | solubility (mole fraction) (in acetonitrile, 283.15 K): 0.648 | solubility (mole fraction) (in acetonitrile, 288.15 K): 0.705 | solubility (mole fraction) (in acetonitrile, 293.15 K): 0.764 | solubility (mole fraction) (in acetonitrile, 298.15 K): 0.809 | solubility (mole fraction) (in acetonitrile, 303.15 K): 0.844 | solubility (mole fraction) (in acetonitrile, 308.15 K): 0.879 | solubility (mole fraction) (in acetonitrile, 313.15 K): 0.918 | solubility (mole fraction) (in dichloromethane, 278.15 K): 0.425 | solubility (mole fraction) (in dichloromethane, 283.15 K): 0.51 | solubility (mole fraction) (in dichloromethane, 288.15 K): 0.597 | solubility (mole fraction) (in dichloromethane, 293.15 K): 0.641 | solubility (mole fraction) (in dichloromethane, 298.15 K): 0.709 | solubility (mole fraction) (in dichloromethane, 303.15 K): 0.78 | solubility (mole fraction) (in dichloromethane, 308.15 K): 0.824 | solubility (mole fraction) (in dichloromethane, 313.15 K): 0.896 | solubility (mole fraction) (in ethyl acetate, 278.15 K): 0.107 | solubility (mole fraction) (in ethyl acetate, 283.15 K): 0.156 | solubility (mole fraction) (in ethyl acetate, 288.15 K): 0.206 | solubility (mole fraction) (in ethyl acetate, 293.15 K): 0.273 | solubility (mole fraction) (in ethyl acetate, 298.15 K): 0.383 | solubility (mole fraction) (in ethyl acetate, 303.15 K): 0.506 | solubility (mole fraction) (in ethyl acetate, 308.15 K): 0.618 | solubility (mole fraction) (in ethyl acetate, 313.15 K): 0.75 | solubility (mole fraction) (in methyl acetate, 278.15 K): 0.294 | solubility (mole fraction) (in methyl acetate, 283.15 K): 0.384 | solubility (mole fraction) (in methyl acetate, 288.15 K): 0.444 | solubility (mole fraction) (in methyl acetate, 293.15 K): 0.551 | solubility (mole fraction) (in methyl acetate, 298.15 K): 0.646 | solubility (mole fraction) (in methyl acetate, 303.15 K): 0.7 | solubility (mole fraction) (in methyl acetate, 308.15 K): 0.808 | solubility (mole fraction) (in methyl acetate, 313.15 K): 0.874 | solubility (mole fraction) (in n-butyl acetate, 278.15 K): 0.12 | solubility (mole fraction) (in n-butyl acetate, 283.15 K): 0.145 | solubility (mole fraction) (in n-butyl acetate, 288.15 K): 0.181 | solubility (mole fraction) (in n-butyl acetate, 293.15 K): 0.246 | solubility (mole fraction) (in n-butyl acetate, 298.15 K): 0.322 | solubility (mole fraction) (in n-butyl acetate, 303.15 K): 0.451 | solubility (mole fraction) (in n-butyl acetate, 308.15 K): 0.582 | solubility (mole fraction) (in n-butyl acetate, 313.15 K): 0.736 | solubility (mole fraction) (in n-propyl acetate, 278.15 K): 0.234 | solubility (mole fraction) (in n-propyl acetate, 283.15 K): 0.301 | solubility (mole fraction) (in n-propyl acetate, 288.15 K): 0.407 | solubility (mole fraction) (in n-propyl acetate, 293.15 K): 0.505 | solubility (mole fraction) (in n-propyl acetate, 298.15 K): 0.592 | solubility (mole fraction) (in n-propyl acetate, 303.15 K): 0.712 | solubility (mole fraction) (in n-propyl acetate, 308.15 K): 0.817 | solubility (mole fraction) (in n-propyl acetate, 313.15 K): 0.908

Source: BigSolDB 2.1
